Source: patent publication US9353150B2, “Substituted pyrazino[1′,2′:1 ,5]pyrrolo[2,3-b]-indole-1,4-diones for cancer treatment” (Massachusetts Institute of Technology, priority 2012, dated 2016)
Entries after “also recorded” stand apart in the source; their conditions may differ. Read-outs that look alike come from different tables or passages of the source.

Legend:
[1] = test system: U-937 (hystiocytic lymphoma); assay: 72-hour IC50 determination for non-adherent cells using MTS; type: cell-based, human
Method: (§1) Certain synthesized compounds were screened for their ability to induce death in two human cancer cell lines: U-937 (leukemic monocyte lymphoma) and HeLa (cervical cancer).
(§2) Cells were grown in media supplemented with fetal bovine serum (FBS) and antibiotics ([…]). Specifically, experiments were performed using the following cell lines and media compositions: U-937, HeLa, H460, and 786-O (RPMI-1640+10% FBS), and MCF7 (EMEM+10% FBS). Cells were incubated at 37° C. in a 5% CO2, 95% humidity atmosphere.
(§3) In a 96-well plate, compounds were pre-added as DMSO stocks in triplicate to achieve a final concentration of 1%. DMSO and cell-free wells served as the live and dead control, respectively. U-937 (5,000 cells/well) cells were distributed in 100 μL media to the compound-containing plate. After 72 hours, cell viability was assessed by adding 20 μL of a PMS/MTS solution (Cory, A. H.; Owen, T. C.; Barltrop, J. A.; Cory, J. G. Cancer Commun. 1991, 3, 207) to each well, allowing the dye to develop at 37° C. until the live control had processed MTS, and reading the absorbance at λ=490 nm. IC50 values were determined from three or more independent experiments using TableCurve (San Jose, Calif.).

[2] = test system: HeLa (cervical carcinoma); assay: 72-hour IC50 determination for adherent cells using sulforhodamine B (SRB); type: cell-based, human
Method: as §1, §2
(§4) Adherent cells (HeLa, H460, 786-O, and MCF7) were added into 96-well plates (5,000 cells/well for HeLa cell line; 2,000 cells/well for H460, 786-O, and MCF7 cell lines) in 100 μL media and were allowed to adhere for 2-3 hours. Compounds were solubilized in DMSO as 100× stocks, added directly to the cells (100 μL final volume), and tested over a range of concentrations in triplicate (1% DMSO final) on a half-log scale. Concentrations tested ranged from […] to 10 μM, depending on the potency of the compound. DMSO and cell-free wells served as the live and dead control, respectively. After 72 hours of continuous exposure, the plates were evaluated using the SRB colorimetric assay as described previously (Vichai, V.; Kirtikara, K. Nature Prot. 2006, 1, 1112). Briefly, media was removed from the plate, and cells were fixed by the addition of 100 μL cold 10% trichloroacetic acid in water. After incubating at 4° C. for an hour, the plates were washed in water and allowed to dry. Sulforhodamine B was added as a 0.057% solution in 1% acetic acid (100 μL), and the plates were incubated at room temperature for 30 minutes, washed in 1% acetic acid, and allowed to dry. The dye was solubilized by adding 10 mM Tris base solution (pH 10.5, 200 μL) and incubating at room temperature for 30 minutes. Plates were read at λ=510 nm. IC50 values were determined from three or more independent experiments using TableCurve (San Jose, Calif.).

MCF-7 (breast carcinoma) = assay: as above; type: cell-based, human; details: error is standard deviation of the mean, n ≧ 3, read-out: MCF-7, 72-hour IC50 (Table E1-2)
Method: (§5) Certain provided compounds were tested in culture against a panel of three supplementary human cancer cell lines representing three additional tumor histologies (H460, lung carcinoma; 786-O, renal carcinoma; MCF-7, breast carcinoma). As shown in Table E1-2, the ETPs retain their potency across the cell lines. In some embodiments, a provided compound is active in all cell lines. In some embodiments, a provide compound can be used to selectively target certain cells and/or cancers. […] Without the intention to be limited, Applicant notes that certain cell lines could be more sensitive to provided compounds; for example, U-937 and HeLa are slightly more sensitive to the ETPs than the other three cell lines.
as §2, §4

786-O (renal carcinoma) = assay: as above; type: cell-based, human; details: error is standard deviation of the mean, n ≧ 3, read-out: 786-O, 72-hour IC50 (Table E1-2)
Method: as §5, §2, §4

H460 (lung carcinoma) = assay: as above; type: cell-based, human; details: error is standard deviation of the mean, n ≧ 3, read-out: H460, 72-hour IC50 (Table E1-2)
Method: as §5, §2, §4

human cancer cell lines = assay: Anticancer activity in human cancer cell lines, not tied to one cell line; type: cell-based; details: for anticancer activity, in words: human cancer cell lines, 72-hour exposure
Method: as §1, §5, §4, §3

[3] = 72-hour exposure, MTS, error is standard deviation of the mean, n ≧ 3, read-out: U-937, 72-hour IC50 (Table E1-1)
[4] = 72-hour exposure, MTS, error is standard deviation of the mean, n ≧ 3, read-out: U-937, 72-hour IC50 (Table E1-2)
[5] = 72-hour exposure, SRB, error is standard deviation of the mean, n ≧ 3, read-out: HeLa, 72-hour IC50 (Table E1-1)
[6] = 72-hour exposure, SRB, error is standard deviation of the mean, n ≧ 3, read-out: HeLa, 72-hour IC50 (Table E1-2)
[7] = Homo sapiens, U-937, 72-hour exposure, MTS, error is standard deviation of the mean, n ≧ 3, read-out: U-937, 72-hour IC50 (Table E1-1)
[8] = Homo sapiens, U-937, 72-hour exposure, MTS, error is standard deviation of the mean, n ≧ 3, read-out: U-937, 72-hour IC50 (Table E1-2)
[9] = Homo sapiens, HeLa, 72-hour exposure, SRB, error is standard deviation of the mean, n ≧ 3, read-out: HeLa, 72-hour IC50 (Table E1-1)
[10] = Homo sapiens, HeLa, 72-hour exposure, SRB, error is standard deviation of the mean, n ≧ 3, read-out: HeLa, 72-hour IC50 (Table E1-2)
[11] = Homo sapiens, MCF7, 72-hour exposure
[12] = Homo sapiens, 786-0, 72-hour exposure
[13] = Homo sapiens, NCI-H460, 72-hour exposure
[14] = Homo sapiens, U-937, 72 h, read-out: U-937, 72-hour IC50 (Table E1-1)
[15] = Homo sapiens, HeLa, 72 h, read-out: HeLa, 72-hour IC50 (Table E1-1)

Compound | IC50 [1, 3] | IC50 [1, 4] | IC50 [2, 5] | IC50 [2, 6] | IC50 (MCF-7 (breast carcinoma); 72-hour exposure) | IC50 (786-O (renal carcinoma); 72-hour exposure) | IC50 (H460 (lung carcinoma); 72-hour exposure) | anticancer activity, in words (human cancer cell lines) | IC50 [1, 7] | IC50 [2, 9] | also measured
CN1C(=O)[C@@]23C[C@]4(c5c[nH]c6ccccc56)c5ccccc5N(S(=O)(=O)c5ccccc5)[C@@H]4N2C(=O)[C@]1(C)SS3 [Compound 60, C3-(Indol-3′-yl) epidithiodiketopiperazines] | 56 ± 23 nM | 56 ± 23 nM | 67 ± 11 nM | 67 ± 11 nM | 327 ± 36 nM | 907 ± 48 nM | 165 ± 65 nM |  |  |  | 
CC(=O)OC[C@]12SSS[C@@]3(C[C@]4([C@]56C[C@@]78SSS[C@@](COC(C)=O)(C(=O)N7[C@H]5N(C(=O)C(F)(F)F)c5ccccc56)N(C)C8=O)c5ccccc5N(C(=O)C(F)(F)F)[C@@H]4N3C1=O)C(=O)N2C [Compound 17] | 8.9 ± 2.3 nM | 8.9 ± 2.3 nM | 28.1 ± 2.2 nM | 28.1 ± 2.2 nM | > 333 nM | 189 ± 26 nM | 179 ± 88 nM |  |  |  | 
CC(=O)OC[C@]12SSS[C@@]3(C[C@]4([C@]56C[C@@]78SSS[C@@](COC(C)=O)(C(=O)N7[C@H]5Nc5ccccc56)N(C)C8=O)c5ccccc5N[C@@H]4N3C1=O)C(=O)N2C [Compound 16] | 9.7 ± 2.1 nM | 9.7 ± 2.1 nM | 70 ± 20 nM | 70 ± 20 nM | 263 ± 98 nM | 204 ± 40 nM | 187 ± 79 nM |  |  |  | 
CC(=O)S[C@H]1C(=O)N2[C@H]3N(S(=O)(=O)c4ccccc4)c4ccccc4[C@@]3(c3c[nH]c4ccccc34)C[C@]2(SC(C)=O)C(=O)N1C [Compound 44, C3-(Indol-3′-yl)bisthloaeetate] |  |  |  |  |  |  |  | competent anticancer agents | 4.1 ± 0.5 nM | 17.3 ± 4.5 nM | IC50 [1, 8]: 4.1 ± 0.5 nM; IC50 [2, 10]: 17.3 ± 4.5 nM; IC50 (MCF-7 (breast carcinoma); [11]): 103 ± 37 nM; IC50 (786-O (renal carcinoma); [12]): 151 ± 7 nM; IC50 (H460 (lung carcinoma); [13]): 149 ± 59 nM
CN1C(=O)[C@@]23C[C@]4([C@]56C[C@@]78SS[C@@](CO)(C(=O)N7[C@H]5Nc5ccccc56)N(C)C8=O)c5ccccc5N[C@@H]4N2C(=O)[C@]1(CO)SS3 [Compound 4, (+)-chaetocin A] | 0.81 ± 0.15 nM | 0.81 ± 0.15 nM | 6.9 ± 2 nM | 6.9 ± 2 nM | 50 ± 16 nM | 26.5 ± 7.7 nM | 53 ± 23 nM | active across the board |  |  | 
CN1C(=O)C23CC4(C56CC78SC(=S)S[C@](C)(C(=O)N7[C@H]5N(S(=O)(=O)c5ccccc5)c5ccccc56)N(C)C8=O)c5ccccc5N(S(=O)(=O)c5ccccc5)[C@@H]4N2C(=O)[C@@]1(C)SC(=S)S3 (some centres unmarked) [Compound 18, Dimeric bisdithiepanethione] |  |  |  |  |  |  |  | competent anticancer agents; also recorded: active across the board | 2.9 ± 2.1 nM | 1.1 ± 0.8 nM | IC50 [1, 8]: 2.9 ± 2.1 nM; IC50 [2, 10]: 1.1 ± 0.8 nM; IC50 (MCF-7 (breast carcinoma); [11]): 10.7 ± 8.1 nM; IC50 (786-O (renal carcinoma); [12]): 14.9 ± 4.4 nM; IC50 (H460 (lung carcinoma); [13]): 18.5 ± 2.7 nM
CN1C(=O)[C@@]2(SCc3ccccc3)C[C@]3(c4cn(C(=O)OC(C)(C)C)c5ccccc45)c4ccccc4N(S(=O)(=O)c4ccccc4)[C@@H]3N2C(=O)[C@@H]1SCc1ccccc1 [Compound 43, C3-(N-Boc-indol-3′-yl)bis(benzylthioether)] |  |  |  |  |  |  |  |  | > 10000 nM | > 10000 nM | IC50 (human cancer cell lines; Homo sapiens, cell line not named in the sentence (U-937 and HeLa screened), read-out: IC50 (did not display any anticancer activity)): > 10000 nM
CN1C(=O)C23CC4(c5c[nH]c6ccccc56)c5ccccc5N(S(=O)(=O)c5ccccc5)[C@@H]4N2C(=O)[C@H]1SCS3 (some centres unmarked) [Compound 38, C3-(Indol-3′-yl)dithioacetal] |  |  |  |  |  |  |  | active | 82 ± 28 nM | 465 ± 37 nM | 
CCC[C@]12CC34SC(=S)SC(C)(C(=O)N3C1N(S(=O)(=O)c1ccccc1)c1ccccc12)N(C)C4=O (some centres unmarked) [Compound 67, C3-Propyl dithiepanethiones] |  |  |  |  |  |  |  | inactive | > 1000 nM | > 1000 nM | 
CN1C(=O)C23CC4(c5c[nH]c6ccccc56)c5ccccc5N(S(=O)(=O)c5ccccc5)C4N2C(=O)C1(C)SC(=S)S3 (centres unmarked) [Compound 66, C3-(Indo-3′-v)dithiepanethiones] | > 1000 nM |  | > 1000 nM |  |  |  |  | inactive |  |  | 
CN1C(=O)[C@@]23C[C@]4(c5c[nH]c6ccccc56)c5ccccc5N[C@@H]4N2C(=O)[C@@H]1SS3 [Compound 10, (+)-12-deoxybionectin A] |  |  |  |  |  |  |  |  |  |  | IC50 [1, 14]: 17.4 ± 1.1 nM; IC50 ([1]; Homo sapiens, U-937, 72 h, read-out: U-937, 72-hour IC50 (Table E1-2)): 17.4 ± 1.1 nM; IC50 [2, 15]: 117 ± 26 nM; IC50 ([2]; Homo sapiens, HeLa, 72 h, read-out: HeLa, 72-hour IC50 (Table E1-2)): 117 ± 26 nM; IC50 (MCF-7 (breast carcinoma); [11]): 156 ± 18 nM; IC50 (786-O (renal carcinoma); [12]): 181 ± 26 nM; IC50 (H460 (lung carcinoma); [13]): 215 ± 100 nM
CCC[C@]12C[C@@]34SC(=S)S[C@@](C)(C(=O)N3C1N(S(=O)(=O)c1ccccc1)c1ccccc12)N(C)C4=O (some centres unmarked) [Compound 65, C3-Propyl dithiepanethiones] |  |  |  |  |  |  |  | substantially lower potencies | > 1000 nM | > 1000 nM | 
CCCC12CC34SSC(C)(C(=O)N3C1N(S(=O)(=O)c1ccccc1)c1ccccc12)N(C)C4=O (stereo not drawn) [Compound 63, α-C3-Propyl epidithiodiketopiperazine] |  |  |  |  |  |  |  | inactive |  |  | IC50 ([1]; read-out: U-937, 72-hour IC50 (Table E1-1), 72-hour exposure, MTS, error is standard deviation of the mean, n ≧ 3): > 1000 nM; IC50 ([2]; read-out: HeLa, 72-hour IC50 (Table E1-1), 72-hour exposure, SRB, error is standard deviation of the mean, n ≧ 3): > 1000 nM
CCCC12CC34SSC(C)(C(=O)N3C1N(S(=O)(=O)c1ccccc1)c1ccccc12)N(C)C4=O (stereo not drawn) [Compound 61, β-C3-Propyl epidithiodiketopiperazine] |  |  |  |  |  |  |  | substantially lower potencies |  |  | IC50 [1, 14]: > 1000 nM; IC50 [2, 15]: > 1000 nM
CC(=O)OC[C@]12SS[C@@]3(C[C@]4([C@]56C[C@@]78SS[C@@](COC(C)=O)(C(=O)N7[C@H]5Nc5ccccc56)N(C)C8=O)c5ccccc5N[C@@H]4N3C1=O)C(=O)N2C [Compound 15] | 4.7 ± 1.3 nM | 4.7 ± 1.3 nM | 14.1 ± 7.4 nM | 14.1 ± 7.4 nM | 77 ± 36 nM | 95 ± 23 nM | 140 ± 82 nM |  |  |  | 
